In data set [1] the test system is LLC cells. Description: LDH release cytotoxicity assay against LLC cells. The settings on record: Mdivi-1 10 μM, 10:1. On the procedure: Cytotoxicity assay. Lung IMs from the PBS vs WGP-trained mice were sorted and co-cultured with LLC cells at different ratios in a 96-well plate. The plates were then incubated at 37° C. with 5% CO2 for 12-16 h. Upon completion of incubation, the supernatants were harvested and assayed for the release of lactate dehydrogenase as per the instructions described in the CyQUANT™ LDH Cytotoxicity Assay Kit (Invitrogen). For the cytotoxicity assay in the presence of Mdivi-1 (10 μM) (Sigma Aldrich), peritoneal macrophages were in vitro trained with PBS or WGP in the presence of Mdivi-1 or DMSO for 6 days. The macrophages were then harvested, counted, and co-cultured with LLC cells at a ratio of 10:1 followed by the lactate dehydrogenase assay for cytotoxicity. In another set of experiments, IMs from the lungs of PBS vs WGP-trained mice were harvested, sorted, and co-cultured with LLC cells (10:1) in the presence of N-acetyl-L-Cysteine (NAC, 1 mM) (Sigma Aldrich) or DMSO and assayed for cytotoxicity.
(LDH leaks from cells whose membrane has failed.)

Data set [2] has as its system peritoneal macrophages. Description: Mitochondrial ROS quantitation (MitoSox Red). It is filed as cell-based, mice. The settings on record: Mdivi-1 50 μM and 75 μM. On the procedure: Mitochondrial ROS quantitation. Peritoneal macrophages were treated with WGP or S1P in the presence or absence of Mdivi-1 and incubated at 37° C. with 5% CO2 for 24 h. The cells were then harvested, washed with PBS and pelleted by centrifugation at 1600 rpm for 5 min at room temperature. The pellets were then stained with MitoSOX Red dye (5 μM) (Invitrogen) at 37° C. for 15 min. The cells were washed with pre-warmed HBSS followed by another wash with PBS at room temperature. The cells were then stained with viability dye and anti-F4/80 and then acquired by flow cytometry. Flow cytometry for p-Drp-1. Peritoneal macrophages were treated with WGP (25 μg/ml) or S1P (1 μM) and incubated at 37° C. with 5% CO2 for 3-4 h. Following the completion of incubation, the cells were quickly washed with cold PBS to stop the activation. The cells were harvested and washed with PBS. The cells were then fixed with 4% formaldehyde for 15 min at room temperature, washed with PBS and permeabilized using ice-cold 100% methanol on ice for a minimum of 10 min. The cells were then stained with primary antibody (p-Drp1) (Cell Signaling) for 1 hour at room temperature followed by secondary antibody (Anti-rabbit IgG) (Biolegend) for 30 min at room temperature as instructed in the Cell Signaling phospho-stain protocol and analyzed using flow cytometry.

Data set [3] relates to LLC-GFP tumor cells. The data set is described as follows: BMDM training and adoptive transfer, LLC-GFP challenge. It is filed as in vivo, mice. The settings on record: BMDM trained in presence of Mdivi-1. The text has this: BMDMs were trained in the presence of Mdivi-1 or DMSO. BMDMs (1×10^6) were then adoptively transferred intravenously to WT mice twice 2 days apart. Two days later recipient mice were challenged with LLC-GFP tumor cells. Mice were euthanized at day 21 post tumor challenge to analyze the tumor burden and T cell phenotype in the lungs.
To examine whether ex vivo beta-glucan trained macrophages could be used for adoptive cell therapy, bone marrow-derived macrophages (BMDM) were used for a proof-of-concept study. To this end, BMDM were trained with WGP beta-glucan for 7 days and then adoptively transferred into naïve mice. Recipient mice were then challenged with LLC-GFP tagged lung cancer cells. Mice were euthanized at day 21 (FIG. 15A).

As for `COc1cc(-n2c(=S)[nH]c3ccccc3c2=O)c(Cl)cc1Cl` [Mdivi-1], the “effect on cytotoxicity of WGP-trained peritoneal macrophages” value in data set [1] was “abrogated WGP-mediated mtROS production (FIG. 14D) and cytotoxicity against tumor cells”. Moreover, the “effect on WGP-mediated mtROS production” value in data set [2] is on record as “abrogated WGP-mediated mtROS production”. Further, the “effect on WGP-trained BMDM-mediated effect” value in data set [3] is given as “completely abrogated WGP-trained BDMD-mediated effect”.

The values above are taken from patent US20250025490A1, “INDUCTION OF TRAINED IMMUNITY FOR THE TREATMENT OF HYPERPROLIFERATIVE DISORDERS” (priority 2021, published 2025).
